Source: ChEMBL document CHEMBL5120754, “Structural modification aimed for improving solubility of lead compounds in early phase drug discovery” (Bioorg Med Chem, 2022)
Values after ≈ are worked out from the molar mass of the structure shown.

tested on: Mycobacterium tuberculosis; test: microbe, parasite or virus in culture; conditions: not given

Row | Structure (SMILES) | MIC [µg/mL]
1 | O=C(Nc1nnc(C2CC2)o1)NC12CC3CC(CC(C3)C1)C2 | 12.5 (≈ 41.3 µM)
2 | Cc1cc(NC(=O)NC23CC4CC(CC(C4)C2)C3)no1 | 27 (≈ 98.1 µM)
3 | Cn1cc(NC(=O)NC23CC4CC(CC(C4)C2)C3)cn1 | 50 (≈ 182 µM)

tested on: not listed separately; test: Lipophilicity, logD of compound; assay type: physicochemical; conditions: octanol/water

Row | Structure (SMILES) | logD
4 | CCCN(CCOC)c1cc(C)nc2c(-c3ccc(OC)cc3OC)c(C)nn12 | 2.78
5 | Cc1nc(N2CCN(c3ncc(OCc4ccncc4C#N)cn3)CC2)no1 | 4
6 | COc1cc2[nH]c(C)c(-c3ccccc3)c(=O)c2cc1Cl | 1.65
7 | CCCCCCCc1c(C)nc2cc(OC)ccc2c1O | 3.69
8 | CC(C)(C)OC(=O)N1CCN(c2ncc(OCc3ccncc3C#N)cn2)CC1 | 3.3

tested on: not given; test: not given; conditions: buffer

Row | Structure (SMILES) | Therm_solubility
9 | C=CC(=O)Nc1cccc(N2C(=O)N(Cc3ccccc3)Cc3cnc(Nc4ccc(N5CCN(C)CC5)cc4OC)nc32)c1 | 4000 µg/mL
10 | O=C1NC(=O)C(c2ccccc2)(c2ccccc2)N1 [PHENYTOIN] | 20000 µg/mL
11 | Cc1cc(C#N)cc(C)c1Oc1nc(Nc2ccc(C#N)cc2)nc(N)c1Br [ETRAVIRINE] | 1 µg/mL
12 | Nc1nc2cc(-c3ccc(CCCc4ccccc4)cc3)cc(CCC(=O)O)c2c(=O)n1CC1CCCO1 (stereo unspecified) | 0.17 µg/mL
13 | CCCCOc1ccc(-c2cccc(C(=O)O)c2)cc1CNC(=O)c1ccc(C(F)(F)F)cc1F | 1 µg/mL
14 | Cc1cc2ccccc2n1CCNC(=O)c1ccc(-c2nnn[nH]2)cc1 | 0.257 µM
15 | COc1ccc2c3c(c4cc(OC)c(OC)cc4c2c1)C[C@H]1CCCN1C3 [(-)-ANTOFINE] | 1 µg/mL
16 | COc1cc2c(cc1OC)CN(C(=O)/C=C/c1c(-c3ccccc3)n(C)c3ncccc13)CC2 | 141 µg/mL

target: T1, Peroxisome proliferator-activated receptor delta (Homo sapiens, UniProt Q03181); test: Partial agonist activity at PPARdelta (unknown origin); conditions: not given
T1 sequence (Q03181 whole entry): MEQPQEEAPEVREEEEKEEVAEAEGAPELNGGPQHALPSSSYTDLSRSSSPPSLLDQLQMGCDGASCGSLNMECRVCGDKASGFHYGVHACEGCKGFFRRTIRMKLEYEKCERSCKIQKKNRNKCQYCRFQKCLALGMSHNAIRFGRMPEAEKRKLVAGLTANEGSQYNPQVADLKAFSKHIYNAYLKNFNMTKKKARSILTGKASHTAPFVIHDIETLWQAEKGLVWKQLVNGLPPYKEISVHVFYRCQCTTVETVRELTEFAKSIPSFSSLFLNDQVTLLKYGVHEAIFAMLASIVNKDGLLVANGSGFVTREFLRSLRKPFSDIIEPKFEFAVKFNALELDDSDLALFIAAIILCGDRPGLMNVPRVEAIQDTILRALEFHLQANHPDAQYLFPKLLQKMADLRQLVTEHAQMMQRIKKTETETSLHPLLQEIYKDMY

Row | Structure (SMILES) | EC50 [nM]
17 | CCCCOc1ccc(-c2cncc(C(=O)O)c2)cc1CNC(=O)c1ccc(C(F)(F)F)cc1F | 220
18 | CCCCOc1ccc(-c2c(C)ncc(C(=O)O)c2C)cc1CNC(=O)c1ccc(C(F)(F)F)cc1F | 76
19 | CCCCOc1ccc(-c2cccc(C(=O)O)c2)cc1CNC(=O)c1ccc(C(F)(F)F)cc1F | 170

tested on: not listed separately; test: physchem; conditions: buffer

Row | Structure (SMILES) | solubility thermodynamic
20 | Oc1nc2cc(Cl)c(Cl)c(Cn3cncn3)c2nc1O | 10 µg/mL
21 | CCCCOc1ccc(-c2cncc(C(=O)O)c2)cc1CNC(=O)c1ccc(C(F)(F)F)cc1F | 7.6 µg/mL
22 | Cn1nnc(-c2ccc(-c3ccc(N4C[C@H](COP(=O)(O)O)OC4=O)cc3F)cn2)n1 [TEDIZOLID PHOSPHATE] | 50000 µg/mL
23 | Nc1ncc(-c2nc(N3CCOCC3)nc3c2CCN3C(=O)Nc2ccccc2)cn1 | 3 µg/mL
24 | O=C(NCCN1CCCC1)c1cc(-c2ccc(CN3CCOCC3)cc2)nc2ccc(F)cc12 [CABAMIQUINE] | 216 µM
25 | Nc1nc2cc(-c3ccc(CCCc4ccccc4)cc3)ccc2c(=O)n1CC1CCC(c2ccccc2)O1 (stereo unspecified) | < 0.01 µg/mL
26 | O=C1NC(c2ccccc2)(c2ccccc2)C(=O)N1COP(=O)([O-])O.[Na+] | 142000 µg/mL
27 | Cc1sc(-c2ccccc2)nc1CCOc1ccc(CC(Nc2ccccc2C(=O)c2ccccc2)C(=O)O)cc1 (stereo unspecified) | 1 µg/mL
28 | Cc1sc(N2CCNCC2)nc1CCOc1ccc(CC(Nc2ccccc2C(=O)c2ccccc2)C(=O)O)cc1 (stereo unspecified) | 10000 µg/mL
29 | Cc1cc(/C=C/C#N)cc(C)c1Oc1nc(Nc2ccc(CN3CCN(S(C)(=O)=O)CC3)cc2)nc(N)c1Br | 30.9 µg/mL
30 | CC(=O)NC[C@@H]1OC(=O)N2c3ccc(-c4ccc(C#N)nc4)cc3OC[C@@H]12 | 10 µg/mL
31 | O=C(Nc1nnc(C2CC2)o1)NC12CC3CC(CC(C3)C1)C2 | 38.3 µg/mL
32 | Cc1cc(NC(=O)NC23CC4CC(CC(C4)C2)C3)no1 | 25.9 µg/mL
33 | COCCCc1nc(CCOc2ccc(CC(Nc3ccccc3C(=O)c3ccccc3)C(=O)O)cc2)c(C)s1 (stereo unspecified) | 210 µg/mL
34 | CCCOc1ccc(CC(Cc2ccccc2)C(=O)O)cc1CNC(=O)c1ccc(C23CC4CC(CC(C4)C2)C3)cc1 (stereo unspecified) | 1 µg/mL
35 | CCn1nc(-c2cccc(Cl)c2)nc2c(=O)n(C)c(=O)nc1-2 | 28.5 µM
36 | CCC1(O)C(=O)OCc2c1cc1n(c2=O)Cc2c-1nc1ccc(O)cc1c2CN(C)C (stereo unspecified) | 1000 µg/mL
37 | C[C@H]1[C@H](COP(=O)([O-])[O-])OC(=O)N1c1ccc(-c2ccc([C@@H]3CN(C)C(=O)O3)nc2)cc1O.[Na+].[Na+] | 227000 µg/mL
38 | CC(=O)Nc1nc2c(Oc3cc(-c4ccc(C(F)(F)F)cc4)ncn3)cccc2s1 [AMG-517] | 1 µg/mL
39 | CCCN(CCOC)c1cc(C)nc2c(-c3ccc(OC)cc3OC)c(C)nn12 | 10000 µg/mL
40 | Cn1cc(NC(=O)NC23CC4CC(CC(C4)C2)C3)cn1 | 41.1 µg/mL
41 | COc1cc2[nH]c(C)c(-c3ccccc3)c(=O)c2cc1Cl | 6 µM
42 | CCCCCCCc1c(C)nc2cc(OC)ccc2c1O | 2 µM
43 | CC(C)(C)OC(=O)N1CCN(c2ncc(OCc3ccncc3C#N)cn2)CC1 | 24 µM

tested on: Human immunodeficiency virus 1; test: Antiviral activity against HIV-1; assay type: functional, organism-based; conditions: not given

Row | Structure (SMILES) | EC50 [nM]
44 | Cc1cc(/C=C/C#N)cc(C)c1Oc1nc(Nc2ccc(CN3CCN(S(C)(=O)=O)CC3)cc2)nc(N)c1Br | 7.5

target: Plasmepsin II (Plasmodium falciparum, UniProt P46925); test: Inhibition of Plasmodium falciparum 3D7 plasmepsin II; conditions: not given
Sequence (P46925 whole entry): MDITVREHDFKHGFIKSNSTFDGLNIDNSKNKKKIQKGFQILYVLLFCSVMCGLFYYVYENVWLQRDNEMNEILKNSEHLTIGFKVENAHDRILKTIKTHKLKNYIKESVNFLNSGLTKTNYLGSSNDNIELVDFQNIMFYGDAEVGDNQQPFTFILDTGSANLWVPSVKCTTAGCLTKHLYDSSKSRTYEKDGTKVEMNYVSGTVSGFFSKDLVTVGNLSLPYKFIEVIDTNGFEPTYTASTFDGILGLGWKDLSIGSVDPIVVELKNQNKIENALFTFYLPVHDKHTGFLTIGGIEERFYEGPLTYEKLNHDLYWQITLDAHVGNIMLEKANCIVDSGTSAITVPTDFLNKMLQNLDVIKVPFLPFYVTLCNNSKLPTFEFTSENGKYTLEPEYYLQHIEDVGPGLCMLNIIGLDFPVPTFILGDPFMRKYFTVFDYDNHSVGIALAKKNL

Row | Structure (SMILES) | IC50 [nM]
45 | Nc1nc2cc(-c3ccc(CCCc4ccccc4)cc3)ccc2c(=O)n1CC1CCC(c2ccccc2)O1 (stereo unspecified) | 3200
46 | Nc1nc2cc(-c3ccc(CCCc4ccccc4)cc3)cc(CCC(=O)O)c2c(=O)n1CC1CCCO1 (stereo unspecified) | 16700
